The values below come from ChEMBL document CHEMBL1158581, “Synthesis and evaluation of new N6-substituted adenosine-5'-N-methylcarboxamides as A3 adenosine receptor agonists” (Bioorg Med Chem, 2010).

As a reminder, the Ki is a dissociation constant, usually derived from enzyme kinetics or from competition with a known ligand.

In the first assay the target is Adenosine receptors; A1 & A3 (Homo sapiens) (UniProt P30542+P0DMS8). The assay is described as follows: Selectivity ratio of Ki for human recombinant adenosine A1 receptor to Ki for human recombinant adenosine A3 receptor.
Regarding `CC1(C)CC(CNc2ncnc3c2ncn3[C@@H]2O[C@H](CO)[C@@H](O)[C@H]2O)C(C)(C)N1[O]` (some centres undefined), the Ratio Ki amounted to 0.0024.
On to `CNC(=O)[C@H]1O[C@@H](n2cnc3c(Nc4ccc(CCNC(=O)c5cc(C(C)(C)C)c(O)c(C(C)(C)C)c5)cc4)ncnc32)[C@H](O)[C@@H]1O`, for which the Ratio Ki was found to be 5.4.
The same measure, in the same setting: the same measure for `CNC(=O)[C@H]1O[C@@H](n2cnc3c(NCC4CC(C)(C)N([O])C4(C)C)ncnc32)[C@H](O)[C@@H]1O` (some centres undefined): 0.56.
Same read-out and setting: for `CNC(=O)[C@H]1O[C@@H](n2cnc3c(NC4CC(C)(C)NC(C)(C)C4)ncnc32)[C@H](O)[C@@H]1O` the value was 0.39.
Still for that read-out and setting: the same measure for `CNC(=O)[C@H]1O[C@@H](n2cnc3c(NCc4ccc(NC(=O)CCC(=O)NCCc5cc(C(C)(C)C)c(O)c(C(C)(C)C)c5)cc4)ncnc32)[C@H](O)[C@@H]1O`: 19.
With `CNC(=O)[C@H]1O[C@@H](n2cnc3c(Nc4ccc5c(c4)C(C)(C)NC5(C)C)ncnc32)[C@H](O)[C@@H]1O`, the Ratio Ki was 16.

The next assay has as its target T1, Adenosine receptor A3 (Homo sapiens, UniProt P0DMS8).
T1 sequence (P0DMS8 whole entry): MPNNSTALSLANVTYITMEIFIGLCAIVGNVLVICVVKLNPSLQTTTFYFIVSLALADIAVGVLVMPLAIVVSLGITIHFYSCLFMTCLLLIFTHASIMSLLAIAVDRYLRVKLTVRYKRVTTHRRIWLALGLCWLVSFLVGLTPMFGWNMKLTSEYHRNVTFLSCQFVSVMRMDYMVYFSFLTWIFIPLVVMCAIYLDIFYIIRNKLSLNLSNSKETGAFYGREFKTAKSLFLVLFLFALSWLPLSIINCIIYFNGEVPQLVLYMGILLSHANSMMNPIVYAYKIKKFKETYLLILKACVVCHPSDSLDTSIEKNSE
The assay is described as follows: Binding affinity to adenosine A3 receptor.
Compound `CC1(C)CC(CNc2ncnc3c2ncn3[C@@H]2O[C@H](CO)[C@@H](O)[C@H]2O)C(C)(C)N1[O]` (some centres undefined) gave a Ki of 50 nM.

The next assay has as its target T1, Adenosine receptor A3. The assay is described as follows: Displacement of [125I]ABA from human recombinant adenosine A3 receptor by rapid filtration technique.
With `CNC(=O)[C@H]1O[C@@H](n2cnc3c(Nc4ccc(CCNC(=O)c5cc(C(C)(C)C)c(O)c(C(C)(C)C)c5)cc4)ncnc32)[C@H](O)[C@@H]1O`, the Ki was found to be 45 nM.
On the same count and under the same terms, the same measure for `CNC(=O)[C@H]1O[C@@H](n2cnc3c(NCC4CC(C)(C)N([O])C4(C)C)ncnc32)[C@H](O)[C@@H]1O` (some centres undefined): 1020 nM; for `CNC(=O)[C@H]1O[C@@H](n2cnc3c(NC4CC(C)(C)NC(C)(C)C4)ncnc32)[C@H](O)[C@@H]1O`: 2480 nM; for `CNC(=O)[C@H]1O[C@@H](n2cnc3c(NCc4ccc(NC(=O)CCC(=O)NCCc5cc(C(C)(C)C)c(O)c(C(C)(C)C)c5)cc4)ncnc32)[C@H](O)[C@@H]1O`: 2.22 nM.
On to `CNC(=O)[C@H]1O[C@@H](n2cnc3c(Nc4ccc5c(c4)C(C)(C)NC5(C)C)ncnc32)[C@H](O)[C@@H]1O`, for which the Ki came out at 70 nM.

The target of the next assay is Adenosine receptor A2a (Homo sapiens, UniProt P29274). The assay is described as follows: Displacement of [3H]ZM241385 from human recombinant adenosine A2A receptor by rapid filtration technique.
Sequence of Adenosine receptor A2a (P29274 whole entry): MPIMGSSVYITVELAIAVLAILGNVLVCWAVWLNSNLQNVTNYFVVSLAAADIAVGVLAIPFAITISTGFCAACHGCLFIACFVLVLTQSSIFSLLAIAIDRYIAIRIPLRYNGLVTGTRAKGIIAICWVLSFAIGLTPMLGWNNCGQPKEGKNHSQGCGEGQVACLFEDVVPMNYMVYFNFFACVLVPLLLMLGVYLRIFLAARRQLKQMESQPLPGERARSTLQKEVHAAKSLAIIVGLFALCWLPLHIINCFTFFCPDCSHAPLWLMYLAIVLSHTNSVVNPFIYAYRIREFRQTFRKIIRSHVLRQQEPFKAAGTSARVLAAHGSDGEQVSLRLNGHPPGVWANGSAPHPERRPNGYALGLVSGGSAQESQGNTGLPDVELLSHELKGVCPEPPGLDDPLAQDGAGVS
In the case of `CC1(C)CC(CNc2ncnc3c2ncn3[C@@H]2O[C@H](CO)[C@@H](O)[C@H]2O)C(C)(C)N1[O]` (some centres undefined), the Ki was > 10000 nM.
Turning to `CNC(=O)[C@H]1O[C@@H](n2cnc3c(Nc4ccc(CCNC(=O)c5cc(C(C)(C)C)c(O)c(C(C)(C)C)c5)cc4)ncnc32)[C@H](O)[C@@H]1O`, the Ki was > 10000 nM.
For `CNC(=O)[C@H]1O[C@@H](n2cnc3c(NCC4CC(C)(C)N([O])C4(C)C)ncnc32)[C@H](O)[C@@H]1O` (some centres undefined), the Ki is > 10000 nM.
On to `CNC(=O)[C@H]1O[C@@H](n2cnc3c(NC4CC(C)(C)NC(C)(C)C4)ncnc32)[C@H](O)[C@@H]1O`, for which the Ki was > 10000 nM.
In the case of `CNC(=O)[C@H]1O[C@@H](n2cnc3c(NCc4ccc(NC(=O)CCC(=O)NCCc5cc(C(C)(C)C)c(O)c(C(C)(C)C)c5)cc4)ncnc32)[C@H](O)[C@@H]1O`, the Ki is > 10000 nM.
On the same count and under the same terms, the same measure for `CNC(=O)[C@H]1O[C@@H](n2cnc3c(Nc4ccc5c(c4)C(C)(C)NC5(C)C)ncnc32)[C@H](O)[C@@H]1O`: > 10000 nM.

System in the next assay: not listed separately
The assay is described as follows: Selectivity ratio of Ki for adenosine A1 receptor to Ki for adenosine A3 receptor.
For `CC1(C)CC(CNc2ncnc3c2ncn3[C@@H]2O[C@H](CO)[C@@H](O)[C@H]2O)C(C)(C)N1[O]` (some centres undefined), the Ratio Ki was found to be 400.

In the next assay the target is T2, Adenosine receptor A1 (Homo sapiens, UniProt P30542).
T2 sequence (P30542 whole entry): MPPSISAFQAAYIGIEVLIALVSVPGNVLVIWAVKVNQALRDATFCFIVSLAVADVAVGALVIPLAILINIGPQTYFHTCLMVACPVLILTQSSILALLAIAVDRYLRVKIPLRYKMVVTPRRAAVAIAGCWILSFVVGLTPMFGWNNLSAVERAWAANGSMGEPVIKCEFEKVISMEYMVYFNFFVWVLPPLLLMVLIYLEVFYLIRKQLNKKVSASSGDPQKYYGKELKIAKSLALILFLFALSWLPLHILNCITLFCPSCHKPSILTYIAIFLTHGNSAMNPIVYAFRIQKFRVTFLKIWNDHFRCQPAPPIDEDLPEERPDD
The assay is described as follows: Displacement of [125I]ABA from human recombinant adenosine A1 receptor by rapid filtration technique. In general terms: In a radioligand displacement assay an active substance lowers the binding of a labelled ligand.
For `CNC(=O)[C@H]1O[C@@H](n2cnc3c(Nc4ccc(CCNC(=O)c5cc(C(C)(C)C)c(O)c(C(C)(C)C)c5)cc4)ncnc32)[C@H](O)[C@@H]1O`, the Ki is 243 nM.
Regarding `CNC(=O)[C@H]1O[C@@H](n2cnc3c(NCC4CC(C)(C)N([O])C4(C)C)ncnc32)[C@H](O)[C@@H]1O` (some centres undefined), the Ki is 570 nM.
The same measure, in the same setting: for `CNC(=O)[C@H]1O[C@@H](n2cnc3c(NC4CC(C)(C)NC(C)(C)C4)ncnc32)[C@H](O)[C@@H]1O` the value was 960 nM; for `CNC(=O)[C@H]1O[C@@H](n2cnc3c(NCc4ccc(NC(=O)CCC(=O)NCCc5cc(C(C)(C)C)c(O)c(C(C)(C)C)c5)cc4)ncnc32)[C@H](O)[C@@H]1O`, 42.1 nM.
On the same count and under the same terms, for `CNC(=O)[C@H]1O[C@@H](n2cnc3c(Nc4ccc5c(c4)C(C)(C)NC5(C)C)ncnc32)[C@H](O)[C@@H]1O` the value was 1170 nM.
